{
  "source": "patent US20080096799A1",
  "about": "“COMPOUNDS FOR AND METHODS OF TREATING INSULIN RESISTANCE AND INFLAMMATION” (FORBES MEDI-TECH (RESEARCH), INC., priority 2006, published 2008)",
  "key": {"SPT [1]": {"target": "T1, SPT (Homo sapiens, UniProt O15269+O15270)", "T1 construct": "endogenous in cells; host or cells: unnamed cultured cells (Assay B, which Assay C modifies, offers 'CHO cells or a human cell line')", "T1 sequence (O15269 1-473)": "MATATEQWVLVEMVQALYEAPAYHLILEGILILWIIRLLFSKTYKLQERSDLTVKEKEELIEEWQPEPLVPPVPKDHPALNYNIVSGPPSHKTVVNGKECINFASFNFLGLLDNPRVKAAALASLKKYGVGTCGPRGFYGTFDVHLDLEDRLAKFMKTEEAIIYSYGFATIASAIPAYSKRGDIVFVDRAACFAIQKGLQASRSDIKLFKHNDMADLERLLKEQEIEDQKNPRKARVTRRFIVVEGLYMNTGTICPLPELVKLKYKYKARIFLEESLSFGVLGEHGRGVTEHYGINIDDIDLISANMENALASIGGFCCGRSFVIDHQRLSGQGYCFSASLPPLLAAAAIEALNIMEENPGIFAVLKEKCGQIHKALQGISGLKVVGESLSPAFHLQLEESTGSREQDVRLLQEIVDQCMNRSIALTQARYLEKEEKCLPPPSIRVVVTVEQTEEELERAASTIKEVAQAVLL", "T1 sequence (O15270 1-562)": "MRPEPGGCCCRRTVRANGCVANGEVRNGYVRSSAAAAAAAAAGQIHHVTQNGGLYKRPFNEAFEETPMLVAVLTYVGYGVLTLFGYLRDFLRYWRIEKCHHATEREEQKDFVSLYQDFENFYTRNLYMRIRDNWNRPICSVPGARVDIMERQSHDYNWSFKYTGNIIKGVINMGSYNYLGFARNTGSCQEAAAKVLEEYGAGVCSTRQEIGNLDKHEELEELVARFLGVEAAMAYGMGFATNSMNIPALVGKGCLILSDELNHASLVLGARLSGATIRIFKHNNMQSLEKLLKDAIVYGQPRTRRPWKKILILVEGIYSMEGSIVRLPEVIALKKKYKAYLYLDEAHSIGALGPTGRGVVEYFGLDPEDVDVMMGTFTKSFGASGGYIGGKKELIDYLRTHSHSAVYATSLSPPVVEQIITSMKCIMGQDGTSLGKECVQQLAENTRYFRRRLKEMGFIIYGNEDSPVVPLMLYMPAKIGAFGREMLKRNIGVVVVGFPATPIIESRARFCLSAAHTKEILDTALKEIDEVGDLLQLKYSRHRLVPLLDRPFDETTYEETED", "T1 sequence (Q969W0 1-71 partner)": "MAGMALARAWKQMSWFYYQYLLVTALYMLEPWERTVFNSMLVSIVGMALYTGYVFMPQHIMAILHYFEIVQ", "experiment": "Serine palmitoyltransferase activity, Assay C ([3H]serine incorporation into lipids, cell homogenates)", "assay_type": "biochemical", "settings": "[3H]serine radioactivity incorporated into lipids, 37° C. 20 min, at the doses indicated", "method": "An alternative assay for evaluating inhibition of SPT, the enzyme present in commonly cultured cells, is performed with CHO cells or a human cell line. Cells are washed three times with ice-cold phosphate-buffered saline (PBS). A total of 0.5 mL of lysis buffer [50 mM Hepes (pH 8.0) containing 5 mM ethylenediaminetetraacetic acid (EDTA) and 5 mM dithiothreitol (DTT)] is added to each dish. The cells are scraped using a rubber policeman, and are then transferred to a test tube on ice. The cell suspension is sonicated three times for 5 s at 1-2 min intervals on ice. Protein concentrations in cell homogenates are measured using a Bradford protein assay kit (Bio-Rad). […] The radioactivity is measured with a LS6000TA liquid scintillation counter (Beckman). Nonspecific conversion of [^3H] serine to chloroform-soluble species is determined by performing the assay in the absence of palmitoyl CoA. […]\nAn alternative assay using a non-chlorinated solvent modification of the Blye and Dyer lipid extraction method reported in Smedes (Smedes, F. (1999) Analyst 124, 1711-18) is employed to evaluate exemplary compounds. […] An accurately measured portion of the organic layer (4.0 ml) is added to a scintillation vial with 1 ml of water. […] The amount of [^3H] serine radioactivity incorporated into lipids is quantified in a scintillation counter. […]"}, "Rat pancreatic islets": {"system": "Rat pancreatic islets", "experiment": "Protection of islets by an SPT inhibitor (fatty acid medium, propidium iodide flow cytometry)", "assay_type": "cell-based", "settings": "3 days", "method": "Islet protection by an exemplary compound is evaluated in an assay according to Eitel, K, et al. Biochem. Biophys. Res. Commun. 299: 853-6 (2002), and results obtained in this assay are reported below in Table 4. Rat pancreatic islets are cultured with control medium (RPMI 1640 supplemented with 10% fetal bovine serum, antibiotics and made […]) or in medium supplemented with 1 millimolar sodium palmitate (Fatty Acid Medium) during a period of 3 days. The culture medium is changed after 2 days to an identical composition culture medium with fresh inhibitor in the appropriate wells. Cells are stained with propidium iodide (PI), washed and propidium staining of cells (as a measure of cellular DNA content) is assessed by flow cytometry. The percentage of cells having less than the normal amount of PI staining is considered to be apoptotic cells (Eitel, K, et al. (2002))."}, "SPT [2]": {"system": "SPT", "settings": "literature report, immunosuppressive assay for FTY720-like activity; cited from earlier work"}, "[3]": {"system": "diabetic Zucker fatty rat model", "settings": "inhibition of SPT; cited from earlier work"}},
  "data": [
    {"molecule": "CCCCCCCOc1ccc(CCC(O)C(O)C(N)(CC(N)=O)C(=O)O)cc1", "note": "(stereo not shown) [Compound 12]", "values": [
      {"measurement": "inhibition of SPT", "setting": "SPT [1]", "value": "moderate activity"},
      {"measurement": "protection of cells from the fatty acid treatment (apoptotic cells by PI staining)", "setting": "Rat pancreatic islets; 1 millimolar sodium palmitate", "value": "fully protect"},
      {"measurement": "benefit in comparison to treatment with the control medium", "setting": "Rat pancreatic islets; PI staining", "value": "imparts a benefit"}
    ]},
    {"molecule": "CCCCCCCCc1ccc(CCC(N)(CO)CO)cc1", "note": "[FTY720]", "values": [
      {"measurement": "activity against SPT", "setting": "SPT [2]", "value": "do not inhibit SPT"}
    ]},
    {"molecule": "CCCCCCC(=O)CCCCCC/C=C/C[C@@H](O)[C@H](O)[C@@](N)(CO)C(=O)O", "note": "[ISP-1, myriocin]", "values": [
      {"measurement": "inhibition of SPT", "setting": "SPT [1]", "value": "potent but non-selective inhibition"}
    ]},
    {"molecule": "CCCCCCCCc1ccc(CCC(N)(CO)C(=O)O)cc1", "note": "(stereo not shown) [compound 2]", "values": [
      {"measurement": "activity against SPT", "setting": "SPT [2]", "value": "did not exhibit activity"}
    ]},
    {"molecule": "N[C@@H]1CON=C1O", "note": "[cycloserine]", "values": [
      {"measurement": "beta cell protective effect", "setting": "[3]", "value": "≈ 50%"}
    ]}
  ]
}
